Measured values: patent US9701792B2, “Composite compositions and methods of preparing and using same” (THE REGENTS OF THE UNIVERSITY OF COLORADO, A BODY CORPORATE, priority 2014, dated 2017)

Assay: Volumetric shrinkage during photo-CuAAC reaction
Assay type: physicochemical
Conditions: monomer (2) and 4-pentyl-1-ol in chloroform; azide/alkyne to CuCl2/PMDETA/I819 50:50:1:1
Experimental: The volumetric shrinkage behavior during the photo-CuAAC reaction was measured using monomer (2) in FIGS. 3 and 4-pentyl-1-ol in chloroform (molar ratio of azide/alkyne to CuCl2/PMDETA/I819 as 50:50:1:1, the same as the bulk model system). […] In certain embodiments, the total shrinkage is lower in the CuAAC polymerization because the formed triazole concentration is less than the required methacrylate concentration. With appropriate fillers, the composite shrinkage may be reduced further.

CC(C)(c1ccc(OCC(O)CN=[N+]=[N-])cc1)c1ccc(OCC(O)CN=[N+]=[N-])cc1 (stereo not shown) [monomer (2), bisphenol A di(3-azido-2-hydroxypropan-1-ol) ether]
molar volume change per triazole formed: 22.2 mL/mol
